Results from patent US9751853B2, “Solid forms of 3-(5-amino-2-methyl-4-oxo-4H-quinazolin-3-yl)-piperidine-2,6-dione, and their pharmaceutical compositions and uses” (Celgene Corporation, priority 2011, dated 2017).
Entries after “also recorded” stand apart in the source; their conditions may differ. Like-named read-outs stand apart in the source and are kept apart here.

Columns and labels:
[1] = Approximate solubility in test solvents (visual/gravimetric); type: physicochemical; settings: thermodynamic from solid
Protocol: Solubility: A weighed sample of Compound A hydrochloride (about 50 mg) was treated with a known volume of a test solvent. The solvents used were either reagent or HPLC grade. The resulting mixture was agitated for at least 24 hours at about 25° C. If all of the solids appeared to be dissolved by visual inspection, the estimated solubilities were calculated based on the total volume of solvent used to give a complete solution. The actual solubilities may be greater than those calculated due to the use of large amount of solvent or to a slow rate of dissolution. If solids were present, the solubility was measured gravimetrically. A known volume of filtrate was evaporated to dryness and the weight of the residue was measured.

[2] = Chemical stability upon storage
[3] = Solvent/anti-solvent recrystallization, solid form by XRPD; type: physicochemical; settings: MeCN/H2O, ratio 1:5
Protocol: Solvent/Anti-Solvent Recrystallization: The selected solvent (MeCN/water) was saturated with Compound A hydrochloride at room temperature. Once the solids were completely dissolved, an anti-solvent (acetone or IPA) was added into the solution. The mixture was stirred at room temperature overnight. If no precipitation occurred, the vial was further cooled by placing into a refrigerator (about 0-5° C.). The solids resulting from the recrystallization were filtered and air-dried.
X-ray Powder Diffraction (XRPD): XRPD analysis was conducted on a Thermo ARL X'TRA™ X-ray powder diffractometer using Cu Kα radiation at 1.54 Å. The instrument was equipped with a fine focus X-ray tube. The voltage and amperage of X-ray generator were set at 45 kV and 40 mA, respectively. The divergence slices were set at 4 mm and 2 mm and the measuring slices were set at 0.5 mm and 0.2 mm. Diffracted radiation was detected by a peltier-cooled Si(Li) solid-state detector. A theta-two theta continuous scan at 2.40°/min (0.5 sec/0.02° step) from 1.5°2θ to 40°2θ was used. A sintered alumina standard was used to check the peak position. In general, positions of XRPD peaks are expected to individually vary on a measurement-by-measurement basis by about +0.2°2θ. […]

[4] = Equilibration/slurry experiments, solid form by XRPD; type: physicochemical
Protocol: Equilibration/Slurry and Evaporation: Equilibration and evaporation experiments were carried out by adding an excess of Compound A hydrochloride to about 2 mL of a test solvent. The resulting mixture was agitated for at least 24 hrs at about 25° C. or about 50° C. Upon reaching equilibrium, the saturated solution was removed and allowed to evaporate slowly in an open vial under nitrogen at about 25° C. and about 50° C., respectively. The solids resulting from the equilibration were filtered and dried in the air.
X-ray Powder Diffraction (XRPD): XRPD analysis was conducted on a Thermo ARL X'TRA™ X-ray powder diffractometer using Cu Kα radiation at 1.54 Å. The instrument was equipped with a fine focus X-ray tube. The voltage and amperage of X-ray generator were set at 45 kV and 40 mA, respectively. The divergence slices were set at 4 mm and 2 mm and the measuring slices were set at 0.5 mm and 0.2 mm. Diffracted radiation was detected by a peltier-cooled Si(Li) solid-state detector. A theta-two theta continuous scan at 2.40°/min (0.5 sec/0.02° step) from 1.5°2θ to 40°2θ was used. A sintered alumina standard was used to check the peak position. In general, positions of XRPD peaks are expected to individually vary on a measurement-by-measurement basis by about +0.2°2θ. In general, as understood in the art, two XRPD patterns match one another if the characteristic peaks of the first pattern are located at approximately the same positions as the characteristic peaks of the second pattern. As understood in the art, determining whether two XRPD patterns match or whether individual peaks in two XRPD patterns match may require consideration of individual variables and parameters such as, but not limited to, preferred orientation, phase impurities, degree of crystallinity, particle size, variation in diffractometer instrument setup, variation in XRPD data collection parameters, and/or variation in XRPD data processing, among others. The determination of whether two patterns match may be performed by eye and/or by computer analysis.

Cc1nc2cccc(N)c2c(=O)n1C1CCC(=O)NC1=O.Cl (stereo not drawn) [Form A1, 3-(5-amino-2-methyl-4-oxo-4H-quinazolin-3-yl)-piperidine-2,6-dione hydrochloride]
solubility ([1]; aqueous with cosolvent or surfactant or cyclodextrin, EtOH/water (1:1), about 25° C., read-out: approximate solubility): 3000 to 10000 µg/mL | solubility ([1]; aqueous with cosolvent or surfactant or cyclodextrin, MeCN/water (1:1), about 25° C., read-out: approximate solubility): > 25000 µg/mL | solubility ([1]; aqueous with cosolvent or surfactant or cyclodextrin, THF/water (1:1), about 25° C., read-out: approximate solubility): > 25000 µg/mL | solubility ([1]; aqueous with cosolvent or surfactant or cyclodextrin, acetonitrile:water, solvent system for scaleup, read-out: solubility): > 50000 µg/mL | solubility ([1]; organic solvent or mixture, CH2Cl2, about 25° C., read-out: approximate solubility): 3000 to 10000 µg/mL | solubility ([1]; organic solvent or mixture, MeOH, about 25° C., read-out: approximate solubility): 3000 to 10000 µg/mL | solubility ([1]; organic solvent or mixture, THF, about 25° C., read-out: approximate solubility): 3000 to 10000 µg/mL | solubility ([1]; organic solvent or mixture, other organic solvents tested, about 25° C., read-out: approximate solubility): < 3000 µg/mL | solubility ([1]; water, about 25° C., read-out: approximate solubility): 3000 to 10000 µg/mL | chemical stability upon storage ([2]; 40° C. and 75% relative humidity (RH)): chemically stable | chemical stability upon storage ([2]; 40° C. under a nitrogen atmosphere): chemically stable | chemical stability upon storage ([2]; 40° C. under vacuum): chemically stable | chemical stability upon storage ([2]; 60° C. in a closed container): chemically stable | chemical stability upon storage ([2]; room temperature, exposed to air and light, for 6 weeks): chemically stable | XRPD Result after recrystallization ([3]; antisolvent Acetone): Form A1 | XRPD Result after recrystallization ([3]; antisolvent IPA, hydrochloride): partial salt dissociation; also recorded: Form Al + Form A | XRPD Result after equilibration ([4]; slurry at 50° C., 2-Propanol): Form A1 | XRPD Result after equilibration ([4]; slurry at 50° C., Acetone): Form A1 | XRPD Result after equilibration ([4]; slurry at 50° C., Acetonitrile): Form A1 | XRPD Result after equilibration ([4]; slurry at 50° C., Acetonitrile/Water (1:1)): Form A + Form A1 | XRPD Result after equilibration ([4]; slurry at 50° C., Ethanol): Form A1 | XRPD Result after equilibration ([4]; slurry at 50° C., Ethanol/Water (1:1)): Form A + Form A1 | XRPD Result after equilibration ([4]; slurry at 50° C., Ethyl acetate): Form A1 | XRPD Result after equilibration ([4]; slurry at 50° C., Heptane): Form A1 | XRPD Result after equilibration ([4]; slurry at 50° C., Methanol): Form A1 | XRPD Result after equilibration ([4]; slurry at 50° C., Methyl ethyl ketone): Form A1 | XRPD Result after equilibration ([4]; slurry at 50° C., Tetrahydrofuran): Form A1 | XRPD Result after equilibration ([4]; slurry at 50° C., Tetrahydrofuran/Water (1:1)): Form A1 | XRPD Result after equilibration ([4]; slurry at 50° C., Toluene): Form A1 | XRPD Result after equilibration ([4]; slurry at 50° C., Water): Form A + Form A1 | XRPD Result after equilibration ([4]; slurry at 50° C., n-Butanol): Form A1 | XRPD Result after equilibration ([4]; slurry at room temperature, 2-Propanol): Form A1 | XRPD Result after equilibration ([4]; slurry at room temperature, Acetone): Form A1 | XRPD Result after equilibration ([4]; slurry at room temperature, Acetonitrile): Form A1 | XRPD Result after equilibration ([4]; slurry at room temperature, Acetonitrile/Water (1:1)): Form A + Form A1 | XRPD Result after equilibration ([4]; slurry at room temperature, Ethanol): Form A1 | XRPD Result after equilibration ([4]; slurry at room temperature, Ethanol/Water (1:1)): Form A + Form A1 | XRPD Result after equilibration ([4]; slurry at room temperature, Ethyl acetate): Form A1 | XRPD Result after equilibration ([4]; slurry at room temperature, Heptane): Form A1 | XRPD Result after equilibration ([4]; slurry at room temperature, Methanol): Form A1 | XRPD Result after equilibration ([4]; slurry at room temperature, Methyl ethyl ketone): Form A1 | XRPD Result after equilibration ([4]; slurry at room temperature, Methyl t-butyl ether): Form A1 | XRPD Result after equilibration ([4]; slurry at room temperature, Methylene chloride): Form A1 | XRPD Result after equilibration ([4]; slurry at room temperature, Tetrahydrofuran): Form A1 | XRPD Result after equilibration ([4]; slurry at room temperature, Tetrahydrofuran/Water (1:1)): Form A + Form A1 | XRPD Result after equilibration ([4]; slurry at room temperature, Toluene): Form A1 | XRPD Result after equilibration ([4]; slurry at room temperature, Water): Form A + Form A1 | XRPD Result after equilibration ([4]; slurry at room temperature, n-Butanol): Form A1
